# In patent US20140243419A1, “MUCOSALLY-APPLIED AGENT FOR PREVENTION, AMELIORATION OR TREATMENT OF RETINAL DISEASE” (ROHTO PHARMACEUTICAL CO., LTD., priority 2013, published 2014):
# Assays:
# [1] = tested on: NMDA-induced glaucoma rat model; experiment: Protective effect against NMDA-induced nerve damage, administration by instillation to the eye; type: in vivo, Sprague-Dawley (SD) rats; details: Test 2, FIG. 1: 1% memantine solution in PBS instilled twice a day for five days; 5 μL of 4 mM NMDA intravitreously; vs base (PBS)
# Description: (§1) In recent years the glutamate analogue NMDA (N-methyl-D-aspartate) has been widely reported to be one of causative agents of neurodegenerative diseases including Alzheimer's disease. In the ophthalmic field, NMDA is considered to be involved in optic nerve damage in glaucoma (Brain Research Bulletin, 81 (2010) 349-358). Accordingly, in this experiment rat models with glaucoma induced by NMDA were used to evaluate the neuroprotective effect of GGA.
# To Sprague-Dawley (SD) rats (n=8), an eye drop containing 1% (w/v) GGA (all-trans form) or a control eye drop not containing GGA was pre-administered by instillation to the eye twice a day for five days. On the fifth day after the start of the instillation, 5 μL of 4 mM NMDA was intravitreously administered to induce nerve damage (Test 1). […]
# (§2) Three days after the administration of NMDA, the eyeballs were harvested, fixed in half Karnovsky's fixative solution for 24 hours, embedded in paraffin, thin sectioned and stained with hematoxylin-eosin (HE) to prepare histopathological sections. The histological sections were observed under an optical microscope and the thickness (μm) of the inner plexiform layer (IPL) of the retina was measured. Based on the thickness of the inner plexiform layer (IPL) of the retina, the neuroprotective effect of the tested eye drops was evaluated.
# [2] = tested on: NMDA-induced glaucoma rat model; experiment: Protective effect against NMDA-induced nerve damage, instillation into the nose and administration to the oral cavity; type: in vivo, Sprague-Dawley (SD) rats; details: vs no GGA
# Description: as §1
# To Sprague-Dawley (SD) rats (n=6), 20 μL of 100% (w/v) GGA (all-trans form) was intranasally administered once a day for five days and after each administration the rats were maintained under anesthesia for 30 minutes. On the third day after the start of the administration of GGA, 5 μL of 4 mM NMDA was intravitreously administered to induce nerve damage. […]
# as §2, with “in” for “in half”
# [3] = tested on: human corneal epithelial cells (HCET); experiment: Cell permeability (Transwell), HCET; type: in vitro ADME; details: HCET on Transwell; 0.1% GGA (all-trans:5Z-mono-cis 6:4); 30 minutes or 4 hours; compared with MDCK-I; FIG. 3
# Description: (§3) The following test was performed using three types of cells, human corneal epithelial cells (HCET), human nasal septum squamous carcinoma cells (RPMI-2650), and canine renal tubular epithelial cells (MDCK-I), which are often used as an intestinal permeability assay model. The medium used for culture of each type of cells is shown below.
# HCET: a liquid medium containing an equal ratio of Dulbecco's modified Eagle's basal medium/Ham's F12 (DMEM/F-12, Invitrogen) supplemented with 0.5% DMSO (Wako Pure Chemical Industries, Ltd.), 10 ng/mL epidermal growth factor (R&D), 5 μg/mL insulin (Invitrogen) and 5% (v/v) fetal calf serum (Daiichi Pure Chemicals)
# GGA having a weight ratio of the all-trans form to the 5Z-mono-cis form of 6:4 (Wako Pure Chemical Industries, Ltd.) was used as a test substance. Amounts of 100 mg of GGA and 0.25 mg of α-tocopherol (Wako Pure Chemical Industries, Ltd.) as an antioxidant were weighed and dissolved in 789 mg of 100% ethanol. […]
# (§4) Each type of cells was seeded onto a Transwell 24-well microplate (CORNING) at 5.0×10, cells per well and cultured under 5% CO2 at 37° C. […] After the culture period, the culture supernatant in the Transwells was recovered and the residual GGA in the supernatant was measured. […]
# (§5) The concentration of GGA was measured as follows. […]
# [4] = tested on: human nasal septum squamous carcinoma cells (RPMI-2650); experiment: Cell permeability (Transwell), RPMI-2650; type: in vitro ADME; details: RPMI-2650 on Transwell; 0.1% GGA (all-trans:5Z-mono-cis 6:4); 30 minutes or 4 hours; compared with MDCK-I; FIG. 3
# Description: as §3
# RPMI-2650: a minimum essential medium (MEM, Invitrogen) supplemented with 10% (v/v) fetal calf serum (Daiichi Pure Chemicals)
# GGA having a weight ratio of the all-trans form to the 5Z-mono-cis form of 6:4 (Wako Pure Chemical Industries, Ltd.) was used as a test substance. Amounts of 100 mg of GGA and 0.25 mg of α-tocopherol (Wako Pure Chemical Industries, Ltd.) as an antioxidant were weighed and dissolved in 789 mg of 100% ethanol. The GGA dissolved in ethanol was diluted and dissolved in serum-free medium appropriate for each type of cells to a final concentration of 0.1 w/v %.
# as §4, with “C. To each of the Transwells' lower chambers, 600 μL of the same medium as used for cell culture was added.” for “C.”
# as §5
# [5] = Decomposition of teprenone eye drop by direct sunlight in containers; type: physicochemical; details: direct sunlight 24 hours; Container C (polyethylene terephthalate); vs aluminum foil covered control
# Description: An eye drop containing teprenone was prepared. Specifically, the eye drop was prepared as follows. To surfactants (polysorbate 80 and POE castor oil) warmed to 65° C., teprenone was added and dissolved under stirring in hot water bath at 65° C. for 2 minutes. Water at 65° C. was added, a buffer solution was added, and the mixture was mixed under stirring to give a homogeneous solution. The pH and osmotic pressure were adjusted with hydrochloric acid or sodium hydroxide. The resulting solution was filtered through a membrane filter with a pore size of 0.2 μm (bottle top filter, Thermo Fisher Scientific) to give a clear sterile eye drop.
# The eye drop was separately poured, using a glass volumetric pipette, into 10- to 15-mL plastic or glass containers each in an amount of 5 mL (5 g) and the containers were sealed. These eye drops were placed in the upright position on a test-tube stand and left to stand under direct sunlight for 24 hours (test samples). […]
# The amount of teprenone contained in the test or control eye drops was measured by HPLC and the amount of decomposition (mg/100 mL) by light irradiation was calculated. The amount of decomposition by light irradiation was calculated as follows: […]
# [6] = tested on: retinal detachment-induced animal; details: intraperitoneal administration; cited from earlier work
# glaucoma rat model = details: intraperitoneal administration; cited from earlier work
# [7] = tested on: mouse with photoreceptor cell damage caused by light irradiation; details: oral administration; cited from earlier work
# [8] = tested on: mouse with retinal injury induced by ischemia; details: oral administration; cited from earlier work
# [9] = tested on: multiple sclerosis mouse model; details: oral administration; cited from earlier work
Compound,neuroprotective effect based on thickness of the inner plexiform layer (IPL) of the retina [1],neuroprotective effect based on thickness of the inner plexiform layer (IPL) of the retina ([2]; FIG. 2: 20 μL of 100% (w/v) GGA (all-trans form) intranasally once a day for five days),neuroprotective effect based on thickness of the inner plexiform layer (IPL) of the retina ([2]; FIG. 2: 100 μL of 100% (w/v) GGA (all-trans form) to the oral cavity once a day for five days),permeability of GGA through cells [3],permeability of GGA through cells [4],Amount of decomposition [5],apoptosis of photoreceptor cells [6],expression of heat shock protein 70 [6],expression of heat shock protein 72 (glaucoma rat model),optic nerve damage (glaucoma rat model),retinal ganglion cell death (glaucoma rat model),thioredoxin and heat shock protein 72 in the retinal pigment epithelium [7],number of surviving retinal neurons [8],cell loss in the ganglion [9],number of degenerating axons in the optic nerve [9],visual function [9]
CC12CC3CC(C)(C1)CC(N)(C3)C2 [memantine],no neuroprotective effect,–,–,–,–,–,–,–,–,–,–,–,–,–,–,–
geranylgeranylacetone [GGA],–,apparent neuroprotective effect,apparent neuroprotective effect,higher than that through MDCK-I,higher than that through MDCK-I,significantly inhibited the decomposition of GGA,reduced the apoptosis of photoreceptor cells significantly,induced the expression of heat shock protein 70,induced the expression of heat shock protein 72,ameliorated optic nerve damage,reduced retinal ganglion cell death,induced thioredoxin and heat shock protein 72 in the retinal pigment epithelium,significantly increased the number of surviving retinal neurons,prevented cell loss in the ganglion,reduced the number of degenerating axons in the optic nerve,improved the visual function
